The source of these data is PMC6720511, “Synthesis and biological evaluation of novel N-(piperazin-1-yl)alkyl-1H-dibenzo[a,c]carbazole derivatives of dehydroabietic acid as potential MEK inhibitors” (Journal of Enzyme Inhibition and Medicinal Chemistry, 2019).

Assay [1] concerns the target T1, MEK1 (Homo sapiens, UniProt Q02750).
T1 construct: purchased Carna Biosciences, Japan
In words: Preliminary screening of in vitro MEK1 inhibitory activity. The class given is biochemical.

Assay [2] deals with T1, MEK1. In words: In vitro MEK1 inhibition assay (ADP-Glo kinase assay). The class given is biochemical. On the procedure:
An in vitro kinase assay of MEK1 was performed using ADP-Glo kinase assay (Promega, Madison, WI, USA) according to the manufacturer’s protocol. […] Reactions were stopped by adding 5 µL of ADP-Glo reagent to each well. After incubating at 22 °C for 40 min, 10 µL of the kinase detection reagent was added and the plates were incubated for another 30 min at 22 °C in the dark. The reaction mixture was analysed by EnSpire (PerkinElmer, Waltham, MA, USA). U0126 was used as the positive control for MEK1 inhibition.
(In general: ADP-Glo first removes unused ATP, then detects ADP through luciferase.)

The next assay has as its system HepG2. In words: MTT cytotoxic assay. As to conditions: Homo sapiens, HepG2, 48 h, mean value ± SD. The class given is cell-based, human. On the procedure: (§1) Three human hepatocarcinoma cell lines (SMMC-7721, HepG2 and Hep3B) and normal hepatocyte cell line (QSG-7701) were maintained in Dulbecco Modified Eagle Medium (DMEM) containing 4.0 mM L-Glutamine and 4500 mg/l Glucose supplemented with 10% (v/v) foetalbovine serum (FBS) and 100 unites/mL penicillin/streptomycin at 37 °C in humidified atmosphere of 5% CO2 and 95% air.
(§2) The in vitro cytotoxic activities of the carbazole derivatives of DHA were evaluated against three human hepatocarcinoma cell lines (SMMC-7721, HepG2 and Hep3B) and a normal human hepatocyte cell line (QSG-7701) via the MTT colorimetric method. Briefly, SMMC-7721, HepG2, Hep3B and QSG-7701 cells were harvested at log phase of growth and seeded in 96-well plates (100 µL/well at a density of 2 × 10^5 cells/mL). After 24 h incubation at 37 °C and 5% CO2 to allow cell attachment, cultures were exposed to various concentrations of the isolated compounds for 48 h. Finally, MTT solution (2.5 mg/mL in PBS) was added (40 µL/well). Plates were further incubated for 4 h at 37 °C, and the formazan crystals formed were dissolved by adding 150 µL/well of DMSO. Absorption at 570 nm was measured with an ELISA plate reader. […] Doxorubicin was co-assayed as positive control.
(In general: Formazan colour is commonly taken as a measure of viable cells.)

The test system of a further assay is SMMC-7721. Put plainly: MTT cytotoxic assay. The class given is cell-based, human. As to conditions: Homo sapiens, SMMC-7721, 48 h, mean value ± SD. Here is the method: as §1, §2
For a further assay, the system named is Hep3B. In words: MTT cytotoxic assay. The class given is cell-based, human. As to conditions: Homo sapiens, Hep3B, 48 h, mean value ± SD. On the procedure: as §1, §2
For assay [3], the system named is three human hepatocarcinoma cell lines (SMMC-7721, HepG2 and Hep3B). Put plainly: MTT cytotoxic assay, statements over the three cancer cell lines. The class given is cell-based. As to conditions: Homo sapiens; at least one of SMMC-7721, HepG2, Hep3B; read-out: IC50 against at least one hepatocarcinoma cell line. On the procedure:
as §1, §2

Assay [4] has as its system normal hepatocyte cell line (QSG-7701). Put plainly: MTT cytotoxic assay on normal hepatocytes. The class given is cell-based, human. As to conditions: Homo sapiens, QSG7701, 48 h, mean value ± SD. On the procedure:
as §1, §2

A further assay concerns HepG2 cells. Put plainly: Cell death inhibition assay. The class given is cell-based, human. As to conditions: 10g 10 µM in combination with Z-VAD-FMK, 24 h. On the procedure:
Figure 6. Compound 10g induced oncosis and apoptosis of HepG2 cells. (a) PD150606 and Z-VAD-FMK partially reversed compound 10g-induced cell death. HepG2 cells were incubated with PD150606, Z-VAD-FMK or Necrostatin-1 at indicated concentration for 24 h alone or in combination with compound 10g at indicated concentration for 24 h. (b) Compound 10g induced the degradation of α-tubulin and β-actin, and activated oncosis marker calpain-1 autolysis from the 80 kDa event to 76 kDa event in western blot analysis. *, p < 0.01; **, p < 0.01; #, p < 0.01; &, p < 0.001. (c) Compound 10g induced the upregulation of apoptotic protein Bax, caspase-3, caspase-9 and plasmic cytochrome c levels, and the downregulation of antiapoptotic protein Bcl-2 level. *, p < 0.001; **, p < 0.01; #, p < 0.01; and p < 0.01.

A further assay deals with MEK1/2. Also on record: method as in PMID 21245089. As to conditions: cited from earlier work.

Structures are written as SMILES. Peptide text beside a SMILES is read from it. * marks the point of attachment. Cbz = O=C(OCc1ccccc1)*; CH2F = FC*

As a reminder, the IC50 is the concentration that gives 50% inhibition.

T1 sequence (Q02750 whole entry): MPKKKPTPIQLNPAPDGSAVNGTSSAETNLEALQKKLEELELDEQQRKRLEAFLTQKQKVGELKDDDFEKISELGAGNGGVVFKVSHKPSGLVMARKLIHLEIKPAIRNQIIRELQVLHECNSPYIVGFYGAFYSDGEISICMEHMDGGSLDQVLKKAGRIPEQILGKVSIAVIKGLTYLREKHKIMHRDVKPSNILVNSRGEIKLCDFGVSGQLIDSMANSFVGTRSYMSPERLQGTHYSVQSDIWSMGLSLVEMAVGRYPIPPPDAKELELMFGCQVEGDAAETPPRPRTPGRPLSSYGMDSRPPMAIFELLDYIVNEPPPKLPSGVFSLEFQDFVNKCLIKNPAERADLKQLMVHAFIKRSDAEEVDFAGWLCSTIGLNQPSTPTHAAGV

In the case of `COC(=O)C1(C)CCCC2(C)c3ccc(C(C)C)cc3-c3c(c4ccccc4n3CCN3CCNCC3)C12` (stereo not shown) [Compound 6a, 2,3,4,4a,9,13c-Hexahydro-7-isopropyl-1,4a-dimethyl-9–(2-(piperazin-1-yl)ethyl) -1H-dibenzo[a,c]carbazole-1-carboxylic acid methyl ester], on MEK1 [1], the “MEK1 inhibitory activity in preliminary screening (in words)” value is on record as “moderate inhibitory activity”. The “MEK1 inhibitory activity (in words)” value at MEK1 [2] is “weak MEK1 inhibitory activity”. Also, the half-maximal inhibitory concentration (IC50) is 13.2 ± 0.73 µM on MEK1 [2] (recombinant GST-MEK1, GST-ERK2, 10 µM ATP, mean value ± SD, read-out: MEK1 inhibitory activity IC50 value); 2.28 ± 0.19 µM in the assay with HepG2; 5.2 ± 0.21 µM in the assay with SMMC-7721; 0.82 ± 0.08 µM with Hep3B; under 10 µM in assay [3]; 8.75 ± 0.65 µM in assay [4].

In the case of `COC(=O)C[C@H](NC(=O)[C@H](C)NC(=O)[C@@H](NC(=O)OCc1ccccc1)C(C)C)C(=O)CF` [Z-VAD-FMK] (Cbz-Val-Ala-Asp(OMe)-CH2F), in the assay on HepG2 cells, the “relative cell viability of HepG2 cells treated with 10g plus inhibitor” value was 16.53%.

On to `CC(=O)Nc1cccc(-n2c(=O)n(C3CC3)c(=O)c3c(Nc4ccc(I)cc4F)n(C)c(=O)c(C)c32)c1` [trametinib], for which, in the assay with MEK1/2, the IC50 is 0.0007 to 0.0009 µM.
